According to patent US20170127693A1, “NUTRITIONAL COMPOSITIONS CONTAINING BUTYRATE AND USES THEREOF” (Mead Johnson Nutrition Company, priority 2015, published 2017):

Type: physicochemical
Description: The dietary butyrate can comprise a phenylalanine amide derivative of butyric acid. In fact, use of a phenylalanine amide derivative of butyric acid provides for improved organoleptic and physicochemical characteristics as it is an odorless and colorless solid crystalline powder. Furthermore, the purification of phenylalanine amide derivatives of butyric acid may be particularly economical for purification in terms of the cost to purify versus the yield of compound ratio. Accordingly, in certain embodiments, the dietary butyrate may comprise an acid-stable butyrate amide with the amino acid phenylalanine, such as phenylalanine-butyramide (“FBA”). […] Moreover, the solubility of FBA in water is satisfactory as it produces clear solutions up to the concentration 0.1 M and suspensions at higher concentrations. Accordingly, FBA is a suitable form of dietary butyrate that may be incorporated into powdered nutritional compositions that are to be reconstituted with water or some other type of liquid.

phenylalanine-butyramide [FBA]
solubility in water (concentration up to which clear solutions are produced): ≤ 100 mM
stability to acids and alkalis: stable to acids and alkalis
